# Measured values from patent US20110230481A2, “DERIVATIVES OF TETRABROMOBENZIMIDAZOLE, A PROCESS FOR THE PREPARATION THEREOF, A PHARMACEUTICAL COMPOSITION COMPRISING THE SAME, A METHOD OF USING THE SAME, A METHOD FOR MODULATING OR REGULATING SERINE/THREONINE KINASES, AND SERINE/THREONINE KINASES MODULATING AGENT” (SELVITA S.A., priority 2009, published 2011).
# Key:
# Assay in all cases: KINOMEscan Max
# Assay type in all cases: binding
# [1] = biological target: MST2 (Homo sapiens, UniProt Q13188)
# In short: (§1)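 qPCR read-out of a DNA tag measures how much tagged kinase stays bound to immobilized active-site ligand when test compound is present, i.e. competition binding.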
# [2] = biological target: T1, RSK1(Kin.Dom.1-N-terminal) (Homo sapiens, UniProt Q15418)
# T1 construct: RSK1(Kin.Dom.1-N-terminal); DNA tag (qPCR read-out)
# In short: as §1
# [3] = biological target: T2, IKK-epsilon (Homo sapiens, UniProt Q14164)
# T2 construct: purchased Ambit Kinomescan (contract panel, KINOMEscan Max)
# In short: as §1
# [4] = biological target: ABL1(H396P)nonphosphorylated (Homo sapiens, UniProt P00519, H396P)
# In short: as §1
# [5] = biological target: T3, CLK4 (Homo sapiens, UniProt Q9HAZ1)
# T3 construct: DNA tag (qPCR read-out); purchased Ambit Kinomescan
# In short: as §1
# [6] = biological target: T4, TNNI3K (Homo sapiens, UniProt Q59H18)
# T4 construct: purchased Ambit Kinomescan (contract screening service)
# In short: as §1
# [7] = biological target: T5, ROCK1 (Homo sapiens, UniProt Q13464)
# T5 construct: DNA tag (qPCR read-out)
# In short: as §1
# [8] = biological target: T6, GRK4 (Homo sapiens, UniProt P32298)
# T6 construct: purchased Ambit Kinomescan (contract panel, KINOMEscan Max)
# In short: as §1
# [9] = biological target: T7, LATS2 (Homo sapiens, UniProt Q9NRM7); conditions: 1 μM
# T7 construct: purchased Ambit (KINOMEscan Max service)
# In short: as §1
# [10] = biological target: T8, TGFBR2 (Homo sapiens, UniProt P37173)
# T8 construct: purchased Ambit Kinomescan (contract screening service)
# In short: as §1
# [11] = biological target: BMPR2 (Homo sapiens, UniProt Q13873); conditions: 1 μM
# In short: as §1
# [12] = biological target: T9, ADCK4 (Homo sapiens, UniProt Q96D53)
# T9 construct: DNA tag (qPCR read-out)
# In short: as §1
# [13] = biological target: T10, DYRK1A (Homo sapiens, UniProt Q13627)
# T10 construct: DNA tag (qPCR read-out); purchased Ambit Kinomescan
# In short: as §1
# [14] = biological target: T11, BRAF (Homo sapiens, UniProt P15056)
# T11 construct: DNA tag (qPCR label); purchased Ambit Kinomescan (contract screening)
# In short: as §1
# [15] = biological target: T12, TAK1 (Homo sapiens, UniProt O43318)
# T12 construct: purchased Ambit (KINOMEscan Max service)
# In short: as §1
# [16] = biological target: T13, CAMK2G (Homo sapiens, UniProt Q13555)
# T13 construct: DNA tag (qPCR label); purchased Ambit Kinomescan (contract screening)
# In short: as §1
# [17] = biological target: T14, RPS6KA5(Kin.Dom.1-N-terminal) (Homo sapiens, UniProt O75582)
# T14 construct: RPS6KA5(Kin.Dom.1-N-terminal); DNA tag (qPCR read-out)
# In short: as §1
# [18] = biological target: T15, PDGFRA (Homo sapiens, UniProt P16234)
# T15 construct: DNA tag (qPCR read-out)
# In short: as §1
# [19] = biological target: T16, FLT3 (Homo sapiens, UniProt P36888)
# T16 construct: purchased Ambit Kinomescan (contract panel, KINOMEscan Max)
# In short: as §1
# [20] = biological target: T17, CDC2L2 (Homo sapiens, UniProt Q9UQ88)
# T17 construct: purchased Ambit (KINOMEscan Max service)
# In short: as §1
# [21] = biological target: T18, JAK1(JH1domain-catalytic) (Homo sapiens, UniProt P23458); conditions: 1 μM
# T18 construct: JAK1(JH1domain-catalytic); purchased Ambit (KINOMEscan Max service)
# In short: as §1
# [22] = biological target: T19, FLT3(K663Q) (Homo sapiens, UniProt P36888, K663Q)
# T19 construct: purchased Ambit Kinomescan (contract screening)
# In short: as §1
# [23] = biological target: T20, FES (Homo sapiens, UniProt P07332)
# T20 construct: purchased Ambit Kinomescan (contract panel, KINOMEscan Max)
# In short: as §1
# [24] = biological target: PHKG2 (Homo sapiens, UniProt P15735)
# In short: as §1
# [25] = biological target: TIE2 (Homo sapiens, UniProt Q02763)
# In short: as §1
# [26] = biological target: T21, GRK7 (Homo sapiens, UniProt Q8WTQ7)
# T21 construct: purchased Ambit Kinomescan (contract panel, KINOMEscan Max)
# In short: as §1
# [27] = biological target: T22, MEK4 (Homo sapiens, UniProt P45985)
# T22 construct: purchased Ambit (KINOMEscan Max service)
# In short: as §1
# [28] = biological target: YANK3 (Homo sapiens, UniProt Q86UX6)
# In short: as §1
# [29] = biological target: T23, CDK4-cyclinD1 (Homo sapiens, UniProt P11802)
# T23 construct: DNA tag (qPCR label); purchased Ambit Kinomescan (contract screening)
# In short: as §1
# [30] = biological target: CSNK1A1L (Homo sapiens, UniProt Q8N752)
# In short: as §1
# [31] = biological target: T24, GSK3A (Homo sapiens, UniProt P49840)
# T24 construct: purchased Ambit Kinomescan (contract panel, KINOMEscan Max)
# In short: as §1
# [32] = biological target: T25, CDC2L1 (Homo sapiens, UniProt P21127)
# T25 construct: DNA tag (qPCR label); purchased Ambit Kinomescan (contract screening)
# In short: as §1
# [33] = biological target: T26, PLK2 (Homo sapiens, UniProt Q9NYY3); conditions: 1 μM
# T26 construct: DNA tag (qPCR read-out)
# In short: as §1
# T4 sequence (Q59H18 whole entry): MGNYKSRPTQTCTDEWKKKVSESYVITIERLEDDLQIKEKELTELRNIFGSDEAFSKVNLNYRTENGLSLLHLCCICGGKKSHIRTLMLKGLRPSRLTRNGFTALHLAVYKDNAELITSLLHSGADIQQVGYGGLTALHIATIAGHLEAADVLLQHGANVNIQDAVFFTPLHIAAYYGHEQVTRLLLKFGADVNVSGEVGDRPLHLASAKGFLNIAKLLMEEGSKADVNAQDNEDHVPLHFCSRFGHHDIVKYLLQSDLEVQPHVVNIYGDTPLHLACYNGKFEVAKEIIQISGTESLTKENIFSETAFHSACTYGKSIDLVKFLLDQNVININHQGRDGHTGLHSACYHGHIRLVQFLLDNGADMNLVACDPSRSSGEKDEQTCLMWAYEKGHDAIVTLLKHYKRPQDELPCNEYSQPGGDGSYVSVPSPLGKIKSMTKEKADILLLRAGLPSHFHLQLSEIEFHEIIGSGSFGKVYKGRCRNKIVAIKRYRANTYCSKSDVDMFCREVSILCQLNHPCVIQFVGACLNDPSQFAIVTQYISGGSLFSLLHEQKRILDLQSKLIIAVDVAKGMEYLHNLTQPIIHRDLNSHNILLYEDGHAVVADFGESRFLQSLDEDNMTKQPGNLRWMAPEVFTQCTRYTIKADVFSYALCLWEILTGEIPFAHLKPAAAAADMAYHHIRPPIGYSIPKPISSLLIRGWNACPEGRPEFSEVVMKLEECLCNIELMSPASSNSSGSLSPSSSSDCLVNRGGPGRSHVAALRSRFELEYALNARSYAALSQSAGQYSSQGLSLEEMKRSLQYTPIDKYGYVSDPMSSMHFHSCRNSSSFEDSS
# T13 sequence (Q13555 whole entry): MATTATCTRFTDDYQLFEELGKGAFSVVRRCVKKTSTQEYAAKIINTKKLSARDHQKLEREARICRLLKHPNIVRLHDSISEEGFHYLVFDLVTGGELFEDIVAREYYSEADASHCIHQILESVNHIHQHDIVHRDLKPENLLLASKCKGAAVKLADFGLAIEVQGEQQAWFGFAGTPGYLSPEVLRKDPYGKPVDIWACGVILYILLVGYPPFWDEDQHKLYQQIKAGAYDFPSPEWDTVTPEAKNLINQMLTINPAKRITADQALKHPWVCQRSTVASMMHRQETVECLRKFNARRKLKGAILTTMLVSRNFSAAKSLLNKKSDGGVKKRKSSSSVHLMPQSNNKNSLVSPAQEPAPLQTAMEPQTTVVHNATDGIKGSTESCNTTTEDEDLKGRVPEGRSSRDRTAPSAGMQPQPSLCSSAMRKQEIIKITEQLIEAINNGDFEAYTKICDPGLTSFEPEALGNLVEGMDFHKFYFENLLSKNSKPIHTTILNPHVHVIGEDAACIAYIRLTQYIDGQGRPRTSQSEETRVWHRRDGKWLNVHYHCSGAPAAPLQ
# T24 sequence (P49840 whole entry): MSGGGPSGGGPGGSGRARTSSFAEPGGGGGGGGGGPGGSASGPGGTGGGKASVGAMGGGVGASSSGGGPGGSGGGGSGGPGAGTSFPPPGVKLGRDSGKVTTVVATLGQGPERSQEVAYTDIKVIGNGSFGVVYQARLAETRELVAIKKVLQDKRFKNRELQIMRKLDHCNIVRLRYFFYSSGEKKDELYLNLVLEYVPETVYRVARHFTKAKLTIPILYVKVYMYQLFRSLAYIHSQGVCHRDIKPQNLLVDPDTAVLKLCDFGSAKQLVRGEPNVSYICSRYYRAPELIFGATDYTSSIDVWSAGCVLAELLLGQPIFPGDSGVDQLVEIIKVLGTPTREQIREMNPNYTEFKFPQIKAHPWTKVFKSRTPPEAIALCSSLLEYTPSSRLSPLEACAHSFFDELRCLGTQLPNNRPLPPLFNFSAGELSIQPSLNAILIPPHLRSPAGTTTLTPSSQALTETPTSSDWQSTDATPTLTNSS
# Chain of BMPR2 (Q13873 27-1038): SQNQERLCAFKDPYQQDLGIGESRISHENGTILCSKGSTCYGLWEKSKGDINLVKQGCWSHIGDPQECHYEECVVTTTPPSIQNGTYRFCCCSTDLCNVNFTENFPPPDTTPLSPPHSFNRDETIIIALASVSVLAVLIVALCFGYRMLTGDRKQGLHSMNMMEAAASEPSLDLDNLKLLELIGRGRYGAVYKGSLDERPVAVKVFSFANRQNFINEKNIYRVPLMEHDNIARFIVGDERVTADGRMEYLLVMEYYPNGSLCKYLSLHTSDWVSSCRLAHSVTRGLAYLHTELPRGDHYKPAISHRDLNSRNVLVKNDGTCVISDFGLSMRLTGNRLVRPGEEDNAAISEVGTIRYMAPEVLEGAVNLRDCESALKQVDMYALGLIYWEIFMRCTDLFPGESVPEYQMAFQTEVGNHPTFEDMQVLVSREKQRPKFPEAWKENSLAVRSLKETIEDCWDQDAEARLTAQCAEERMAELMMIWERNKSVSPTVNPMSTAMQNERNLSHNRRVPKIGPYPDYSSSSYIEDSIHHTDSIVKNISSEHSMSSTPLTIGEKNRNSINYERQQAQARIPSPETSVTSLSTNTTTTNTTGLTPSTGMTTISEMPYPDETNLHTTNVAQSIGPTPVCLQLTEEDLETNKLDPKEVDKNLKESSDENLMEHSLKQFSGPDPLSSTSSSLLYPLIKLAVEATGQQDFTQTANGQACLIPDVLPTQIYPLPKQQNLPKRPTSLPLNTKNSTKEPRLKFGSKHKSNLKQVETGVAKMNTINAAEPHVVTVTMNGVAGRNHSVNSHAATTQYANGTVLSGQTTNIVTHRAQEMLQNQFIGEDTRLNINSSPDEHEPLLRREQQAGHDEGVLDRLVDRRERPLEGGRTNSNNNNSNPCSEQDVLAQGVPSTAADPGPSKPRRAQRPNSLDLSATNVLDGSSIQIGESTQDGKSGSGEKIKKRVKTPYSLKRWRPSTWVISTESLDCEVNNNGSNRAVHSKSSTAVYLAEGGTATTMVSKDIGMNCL
# T6 sequence (P32298 whole entry): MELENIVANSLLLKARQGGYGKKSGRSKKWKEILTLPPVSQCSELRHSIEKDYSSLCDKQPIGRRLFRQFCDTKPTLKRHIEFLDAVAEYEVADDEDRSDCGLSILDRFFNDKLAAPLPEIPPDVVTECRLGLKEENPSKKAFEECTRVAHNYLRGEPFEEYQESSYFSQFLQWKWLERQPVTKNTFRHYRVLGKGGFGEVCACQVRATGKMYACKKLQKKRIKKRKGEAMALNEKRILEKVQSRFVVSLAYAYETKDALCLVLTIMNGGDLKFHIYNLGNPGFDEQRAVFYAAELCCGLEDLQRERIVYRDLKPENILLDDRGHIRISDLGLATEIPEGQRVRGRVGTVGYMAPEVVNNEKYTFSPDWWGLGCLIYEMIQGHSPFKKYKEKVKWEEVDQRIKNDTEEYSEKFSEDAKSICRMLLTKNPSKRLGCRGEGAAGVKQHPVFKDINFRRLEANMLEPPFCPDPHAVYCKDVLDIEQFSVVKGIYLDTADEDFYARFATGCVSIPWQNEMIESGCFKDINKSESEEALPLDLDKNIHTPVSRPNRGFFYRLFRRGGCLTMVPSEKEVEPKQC
# T23 sequence (P11802 whole entry): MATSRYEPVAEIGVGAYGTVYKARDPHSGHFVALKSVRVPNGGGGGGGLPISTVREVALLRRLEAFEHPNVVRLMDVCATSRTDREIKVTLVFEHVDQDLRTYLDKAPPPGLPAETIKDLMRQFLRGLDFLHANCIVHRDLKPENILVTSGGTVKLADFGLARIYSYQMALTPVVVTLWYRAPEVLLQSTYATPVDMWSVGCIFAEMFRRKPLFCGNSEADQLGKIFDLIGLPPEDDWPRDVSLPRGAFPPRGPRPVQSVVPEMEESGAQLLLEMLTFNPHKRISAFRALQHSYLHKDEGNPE
# T23 sequence (P24385 whole entry partner): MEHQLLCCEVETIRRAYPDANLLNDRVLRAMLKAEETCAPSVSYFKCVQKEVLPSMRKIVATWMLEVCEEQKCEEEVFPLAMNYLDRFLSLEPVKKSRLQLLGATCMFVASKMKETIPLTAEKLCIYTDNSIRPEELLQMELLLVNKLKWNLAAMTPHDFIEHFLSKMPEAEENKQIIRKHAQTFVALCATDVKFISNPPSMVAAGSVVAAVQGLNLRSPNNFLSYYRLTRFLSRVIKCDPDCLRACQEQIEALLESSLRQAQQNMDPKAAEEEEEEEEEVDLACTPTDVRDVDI
# T3 sequence (Q9HAZ1 whole entry): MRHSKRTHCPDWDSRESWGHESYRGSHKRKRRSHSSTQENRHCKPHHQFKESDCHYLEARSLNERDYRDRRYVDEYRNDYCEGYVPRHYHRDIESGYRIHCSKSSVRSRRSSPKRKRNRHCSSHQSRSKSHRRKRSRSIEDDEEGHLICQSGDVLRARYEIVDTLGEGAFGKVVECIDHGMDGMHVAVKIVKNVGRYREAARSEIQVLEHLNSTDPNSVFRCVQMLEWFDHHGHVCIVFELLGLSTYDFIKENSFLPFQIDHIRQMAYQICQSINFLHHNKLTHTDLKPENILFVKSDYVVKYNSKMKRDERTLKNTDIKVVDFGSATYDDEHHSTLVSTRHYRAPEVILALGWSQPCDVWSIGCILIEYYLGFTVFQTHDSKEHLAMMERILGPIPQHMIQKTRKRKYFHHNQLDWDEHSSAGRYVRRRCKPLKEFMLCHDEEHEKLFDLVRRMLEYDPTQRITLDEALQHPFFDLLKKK
# Chain of PHKG2 (P15735 whole entry): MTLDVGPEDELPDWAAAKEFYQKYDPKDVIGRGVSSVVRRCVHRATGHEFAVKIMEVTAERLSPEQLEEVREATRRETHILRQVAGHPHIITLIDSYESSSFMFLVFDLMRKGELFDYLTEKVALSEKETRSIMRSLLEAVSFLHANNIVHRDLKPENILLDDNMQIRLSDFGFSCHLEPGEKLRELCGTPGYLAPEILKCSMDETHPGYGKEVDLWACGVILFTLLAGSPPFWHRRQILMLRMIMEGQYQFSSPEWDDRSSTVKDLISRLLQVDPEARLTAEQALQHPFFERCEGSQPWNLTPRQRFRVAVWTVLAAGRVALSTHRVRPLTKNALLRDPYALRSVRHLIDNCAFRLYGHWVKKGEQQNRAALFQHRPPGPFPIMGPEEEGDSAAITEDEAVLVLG
compound,measurement,setting,value
"NCCCNc1nc2c(Br)c(Br)c(Br)c(Br)c2[nH]1 [Compound 11, N-(3-aminopropyl)-4,5,6,7-tetrabromo-1H-benzo[d]imidazol-2-amine]",remaining binding at 1 µM,[1],100%
same,remaining binding at 1 µM,[2],100%
same,remaining binding at 1 µM,[3],100%
same,remaining binding at 1 µM,[4],100%
same,remaining binding at 1 µM,[5],22%
same,remaining binding at 1 µM,[6],100%
same,remaining binding at 1 µM,[7],28%
same,remaining binding at 1 µM,[8],100%
same,% binding,[9],70%
same,remaining binding at 1 µM,[10],100%
same,% binding,[11],99%
same,remaining binding at 1 µM,[12],87%
same,remaining binding at 1 µM,[13],2.6%
same,remaining binding at 1 µM,[14],100%
same,remaining binding at 1 µM,[15],65%
same,remaining binding at 1 µM,[16],100%
same,remaining binding at 1 µM,[17],100%
same,remaining binding at 1 µM,[18],100%
same,remaining binding at 1 µM,[19],100%
same,remaining binding at 1 µM,[20],82%
same,% binding,[21],86%
same,remaining binding at 1 µM,[22],97%
same,remaining binding at 1 µM,[23],100%
same,remaining binding at 1 µM,[24],75%
same,remaining binding at 1 µM,[25],91%
same,remaining binding at 1 µM,[26],100%
same,remaining binding at 1 µM,[27],82%
same,remaining binding at 1 µM,[28],93%
same,remaining binding at 1 µM,[29],100%
same,remaining binding at 1 µM,[30],76%
same,remaining binding at 1 µM,[31],100%
same,remaining binding at 1 µM,[32],100%
same,% binding,[33],31%
